# From US20140093486A1, “METHOD FOR PREPARING INDUCED PLURIPOTENT STEM CELLS AND ITS APPLICATIONS” (Taipei Veterans General Hospital, priority 2012, published 2014)
# Tests used:
# [1] = system: MEFs transfected with OSKM; assay: efficiency of iPSC generation from OSKM-transfected MEFs (ALP staining); format: cell-based, mouse; settings: induced by OSKM, day 21 post-reprogramming
# Excerpt: C57/B6 mice were used in this study and all procedures involving animals were approved by the Animals Committee of the Taipei Veterans General Hospital. Murine iPSCs were generated from mouse embryonic fibroblasts (MEFs) derived from 13.5-day-old embryos of C57/B6 mice. The iPSCs were reprogrammed by the transduction of retroviral vectors encoding four transcription factors (Oct4/Sox2/Klf4/c-Myc; OSKM), or three transcription factors (Oct4/Sox2/Klf4; OSK), as described previously (Li et al., 2011). Total of 12 clones (Re-1 to Re-12; OSKM) were selected and established. The clone of Re-7 iPSCs had been stably passed to more than 100 th passages with high pluripotency. Therefore, Re-7 iPSCs were selected and widely used in this study. Briefly, undifferentiated iPSCs were routinely cultured and expanded on mitotically-inactivated MEFs (50,000 cells/cm 2) in six-well culture plates (BD Technology) in the presence of 0.3% leukemia inhibitory factor in an iPSC medium consisting of Dulbecco's Modified Eagle's Medium (DMEM; Sigma) supplemented with 15% fetal bovine serum (FBS; Invitrogen), […] minimal essential medium (MEM) nonessential amino acids (Sigma), 0.55 mM 2-mercaptoethanol (Gibco), and antibiotics (Invitrogen). Every three to four days, colonies were detached with 0.2% collagenase IV (Invitrogen), dissociated into single cells with 0.025% trypsin (Sigma) and 0.1% chicken serum (Invitrogen) in PBS, and replated onto MEFs. For embryoid body (EB) formation, iPSCs were dissociated into a single cell suspension by 0.25% trypsin-EDTA and plated onto non-adherent culture dishes in DMEM with 15% FBS, […] MEM nonessential amino acids, 0.55 mM 2-mercaptoethanol, and antibiotics at a density of 2×10^6 cells/100 mm plate. After 4 days in floating culture, EBs were transferred onto gelatin-coated plates and maintained in the same medium for 24 h. EBs were then assigned for in vitro differentiation into tridermal lineages as previously described (Li et al., 2011). […]
# hepatocytes = assay: viability of CCl4-injured hepatocytes (MTT assay); format: cell-based; settings: 0.5 or 5 ng, CCl4 concentration of 1.0 to 2.5 mM, 24 h
# Procedure: Mouse germline-competent iPS cells were provided by Kyoto University (Dr. Shinya Yamanaka) and RIKEN BRC, Japan (Takahashi K et al. (2006) Cell 126:663-676). IPS cells were cultured as previously described (Okita K et al. (2007) Nature 448: 313-317.9). […] For recombinant IP-10 (rIP-10, Peprotech, NC) study, hepatocytes were seeded on 24-well plates at the same density. The rIP-10 (0.5 ng or 5 ng) was given at 4 h post-injury. The viability of hepatocytes was evaluated at 24 h by methyl thiazol tetrazolium (MTT, Sigma) assay.
# Mice (C57/B6) [2] = assay: CCl4-induced acute liver injury model; format: in vivo, mouse; settings: CCl4-injured mice
# Procedure: (§1) Mice (C57/B6, 8 to 10 weeks) were housed in cage and allowed free access to food and water. Mouse was given carbon tetrachloride (CCl4, Sigma) in mineral oil (0.35·μl/g, single dose, i.p.) to induce liver injury. At 4 h post-injury, mice were randomized to receive vehicle (PBS), iPS cells or iHL (2×10^6 cells/in 100 μl PBS) infusions via tail veins. For the time points study, mouse received blood withdrawal (˜100 μl) from facial veins at scheduled time for liver biochemistry. When mouse was sacrificed, blood was drawn from the heart and the liver was harvested and prepared for subsequent experiments including histochemistry, cytokine assay, protein and gene expression analysis. For neutralizing antibody study, mouse was given two doses (0.5 μg/dose, i.p.) of anti-IP-10 antibodies (Abcam, ab9938, Cambridge, UK) at 4 h before and 4 h after injury. For 72 h survival study, mice received repetitive CCl4 injury at 0, 24 and 48 h. […]
# The paraffin sections of livers were stained by H.E. and photo-taken under microscopy at 40× magnification to evaluate the degree of injury. Necrotic area were determined by measuring five independent fields per liver using a computerized morphometry system (MicroCam, M&T OPTICS, Taiwan) and expressed as percentage of the filed area. […]
# Mice (C57/B6) [3] = assay: 72-hour survival of repetitive CCl4-injured mice; format: in vivo, mouse; settings: repetitive CCl4 at 0, 24 and 48 h; treatment once at 4 h
# Procedure: as §1, with “h. The iPS cells (2×10^6 cells/in 100 μl PBS) or recombinant IP10 (rIP10, 0.5 ng) were given once at 4 h and the mortality rate of mice was observed until 72 h post-injury.” for “h.”
# To evaluate the survival effects of iPS cells and IP-10, the 72-hour survival rates were evaluated in repetitive CCl4-injured mice, to which two additional doses of CCl4 (given at 24 and 48 hours) were given after the first dose. […]
Compound,efficiency of iPSC generation [1],viability of injured hepatocytes (hepatocytes),degree of liver damage (Mice (C57/B6) [2]),72-hour survival rates (Mice (C57/B6) [3])
NC(=O)c1cccc(N)c1 [3-aminobenzamide],reduction in the efficiency of iPSC generation,,,
C[C@]1(c2nc3c(C(N)=O)cccc3[nH]2)CCCN1 [ABT-888],reduction in the efficiency of iPSC generation,,,
CN(C)CC(=O)Nc1ccc2[nH]c(=O)c3ccccc3c2c1 [PJ-34],reduction in the efficiency of iPSC generation,,,
rIP-10: recombinant IP-10 (Peprotech),,sufficiently increased the viability,significantly reduced,100%
